From patent US20140005163A1 (NOVARTIS AG, priority 2010, published 2014)

Key:
[1] = system: S6 Ribosomal Protein phosphorylation Ser235/236 in TSC1 null mouse embryo fibroblast (MEF) cells; assay: Reverse protein array assay, S6 Ribosomal Protein phosphorylation Ser235/236 in TSC1 null MEF cells; type: cell-based; conditions: 1 h, pS6 ribosomal protein Ser235/236, 60 minutes incubation, read-out: p-S6 IC50
Procedure, shortened: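 TSC1−/− MEFs, seeded and held ≥20 h at 37 °C/5% CO2, were exposed to 8-step serial compound dilutions (0.02% DMSO final; DMSO vehicle control) for 60 min at 37 °C. Cells were then lysed on ice for 10 min and lysates spotted onto reverse protein array chips.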

[2] = system: PKB Ser473 phosphorylation in Rat1-myr-HA-p110 beta cells; assay: Reverse protein array assay, PKB Ser473 phosphorylation in Rat1-myr-p110 beta cells; type: cell-based; conditions: 0.5 h, pAkt Ser473, 30 minutes incubation, read-out: p-PKB IC50
Procedure, shortened: (§1)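 Compound exposure lasted 30 min in Rat1 cells bearing membrane-targeted HA-p110 isoforms, using 8 serial concentrations. Arrayed lysates, each spotted at four dilutions, gave relative fluorescence signals for phospho-Ser473 PKB.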

PI3K beta = molecular target: T1, PI3K beta (Homo sapiens, UniProt P42338); assay: PI3K beta kinase assay (Kinase-Glo luminescence); type: biochemical
T1 construct: for the full-length p110-b subunit are generated and fused by overlapping PCR; p85(iSH2) fusion partner (see partner chain) (N); His tag (C); made in house; host or cells: baculovirus; Tn5 (Trichoplusia ni) or TiniPro insect cells
Procedure, shortened: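 IC50 is derived by four-parameter logistic curve fitting of Kinase-Glo luminescence, which measures ATP left after a 60 min room-temperature reaction. Conditions are 25 nM His-tagged p85(iSH2)-p110β, 1 μM ATP and 10 μg/mL bovine liver phosphatidylinositol.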

[3] = system: PKB Ser473 phosphorylation in Rat1-myr-HA-p110 alpha cells; assay: Reverse protein array assay, PKB Ser473 phosphorylation in Rat1-myr-p110 alpha cells; type: cell-based; conditions: 0.5 h, pAkt Ser473, 30 minutes compound incubation, read-out: p-PKB IC50
Procedure, shortened: as §1

T1 sequence (P42338 with tags, fused parts or gaps limits assumed): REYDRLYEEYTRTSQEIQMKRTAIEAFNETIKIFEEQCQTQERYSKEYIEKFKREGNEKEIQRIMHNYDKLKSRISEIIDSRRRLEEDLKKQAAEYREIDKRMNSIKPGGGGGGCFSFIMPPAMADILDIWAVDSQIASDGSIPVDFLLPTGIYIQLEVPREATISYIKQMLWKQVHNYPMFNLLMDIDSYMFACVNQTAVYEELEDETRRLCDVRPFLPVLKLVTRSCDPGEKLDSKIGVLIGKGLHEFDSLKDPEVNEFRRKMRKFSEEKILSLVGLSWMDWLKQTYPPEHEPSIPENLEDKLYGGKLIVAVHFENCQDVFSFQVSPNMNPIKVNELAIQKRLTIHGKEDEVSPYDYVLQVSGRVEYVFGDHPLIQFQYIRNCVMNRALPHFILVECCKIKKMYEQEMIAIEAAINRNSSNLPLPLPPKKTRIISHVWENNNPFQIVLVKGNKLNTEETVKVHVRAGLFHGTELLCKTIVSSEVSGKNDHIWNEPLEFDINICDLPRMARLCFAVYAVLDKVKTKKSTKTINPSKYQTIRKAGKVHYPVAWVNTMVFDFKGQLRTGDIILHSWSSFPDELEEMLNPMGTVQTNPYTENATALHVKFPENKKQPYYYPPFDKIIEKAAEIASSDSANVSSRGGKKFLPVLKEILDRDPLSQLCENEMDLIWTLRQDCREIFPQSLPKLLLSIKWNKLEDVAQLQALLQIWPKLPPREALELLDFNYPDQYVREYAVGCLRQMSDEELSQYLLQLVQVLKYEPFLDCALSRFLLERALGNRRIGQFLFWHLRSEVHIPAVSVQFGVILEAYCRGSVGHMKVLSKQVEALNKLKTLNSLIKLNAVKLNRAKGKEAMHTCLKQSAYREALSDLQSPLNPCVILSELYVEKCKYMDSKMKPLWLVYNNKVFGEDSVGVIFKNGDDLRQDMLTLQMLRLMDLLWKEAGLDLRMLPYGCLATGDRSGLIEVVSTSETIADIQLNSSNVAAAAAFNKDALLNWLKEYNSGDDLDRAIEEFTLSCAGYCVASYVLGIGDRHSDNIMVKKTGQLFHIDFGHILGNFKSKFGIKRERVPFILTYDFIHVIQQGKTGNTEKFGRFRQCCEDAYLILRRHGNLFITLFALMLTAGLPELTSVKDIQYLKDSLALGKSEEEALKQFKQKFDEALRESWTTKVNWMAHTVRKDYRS

IC50 [2] [nM] | IC50 (PI3K beta) [nM] | IC50 [3] [nM] | SMILES | IC50 [1] [nM]
27 | 35 | 5 | Cc1nn(C)cc1-n1c(=S)n(C)c2cnc3ccc(-c4cccnc4)cc3c21 [Example 128.1, 1-(1,3-Dimethyl-1H-pyrazol-4-yl)-3-methyl-8-pyridin-3-yl-1,3-dihydro-imidazo[4,5-c]quinoline-2-thione] | 9
10 | 36 | 9 | Cc1nn(C)cc1-n1c(=O)n(C)c2cnc3ccc(-c4cncc(N(C)C5CCC5)c4)cc3c21 [Example 174, 8-[5-(Cyclobutyl-methyl-amino)-pyridin-3-yl]-1-(1,3-dimethyl-1H-pyrazol-4-yl)-3-methyl-1,3-dihydro-imidazo[4,5-c]quinolin-2-one] | 3
32 | 41 | 19 | CCn1cc(-n2c(=O)n(C)c3cnc4ccc(-c5cncc(C(C)(C)C#N)c5)cc4c32)c(C)n1 [Example 220.2, 2-{5-[1-(1-Ethyl-3-methyl-1H-pyrazol-4-yl)-3-methyl-2-oxo-2,3-dihydro-1H-imidazo[4,5-c]quinolin-8-yl]-pyridin-3-yl}-2-methyl-propionitrile] | 3
12 | 40 | < 5 | CNc1ncc(-c2ccc3ncc4c(c3c2)n(-c2cn(C(C)C)nc2C)c(=O)n4C)cc1C(F)(F)F [Example 144.2, 1-(1-Isopropyl-3-methyl-1H-pyrazol-4-yl)-3-methyl-8-(6-methylamino-5-trifluoromethyl-pyridin-3-yl)-1,3-dihydro-imidazo[4,5-c]quinolin-2-one] | 1
220 | 287 | 136 | CCNC(=O)c1cc(-c2ccc3ncc4c(c3c2)n(-c2cn(C(C)C)nc2C)c(=O)n4C)cnc1N [Example 227, 2-Amino-N-ethyl-5-[1-(1-isopropyl-3-methyl-1H-pyrazol-4-yl)-3-methyl-2-oxo-2,3-dihydro-1H-imidazo[4,5-c]quinolin-8-yl]-nicotinamide] | 12
284 | 154 | 44 | Cc1nn(C)cc1-n1c(=O)n(C)c2cnc3ccc(-c4cccc(OC(C)C)c4)cc3c21 [Example 82, 1-(1,3-Dimethyl-1H-pyrazol-4-yl)-8-(3-isopropoxy-phenyl)-3-methyl-1,3-dihydro-imidazo[4,5-c]quinolin-2-one] | 17
15 | 51 | 9 | CN(C)c1ncc(-c2ccc3ncc4c(c3c2)n(-c2cn(C)nc2Cl)c(=O)n4C)cn1 [Example 6.3, 1-(3-Chloro-1-methyl-1H-pyrazol-4-yl)-8-(2-dimethylamino-pyrimidin-5-yl)-3-methyl-1,3-dihydro-imidazo[4,5-c]quinolin-2-one] | 8
196 | 811 | 73 | Cc1nn(C)cc1-n1c(=O)n(C)c2cnc3ccc(-c4cccc(NS(C)(=O)=O)c4)cc3c21 [Example 47, N-{3-[1-(1,3-dimethyl-1H-pyrazol-4-yl)-3-methyl-2-oxo-2,3-dihydro-1H-imidazo[4,5-c]quinolin-8-yl]-phenyl}-methanesulfonamide] | 127
17 | 41 | < 5 | CCN(CC)c1cncc(-c2ccc3ncc4c(c3c2)n(-c2cn(C)nc2C)c(=O)n4C)c1 [Example 95, 8-(5-Diethylamino-pyridin-3-yl)-1-(1,3-dimethyl-1H-pyrazol-4-yl)-3-methyl-1,3-dihydro-imidazo[4,5-c]quinolin-2-one] | 1
17 |  | 7 | Cc1nn(C)cc1-n1c(=O)n(C)c2cnc3ccc(-c4ccc(N5CCCC5)nc4)cc3c21 [Example 97, 1-(1,3-Dimethyl-1H-pyrazol-4-yl)-3-methyl-8-(6-pyrrolidin-1-yl-pyridin-3-yl)-1,3-dihydro-imidazo[4,5-c]quinolin-2-one] | 3
